Like-named read-outs stand apart in the source and are kept apart here.
Legend:
PI3Kγ = molecular target: T1, PI3Kγ (Homo sapiens, UniProt P48736); assay: PI3K kinases inhibition in vitro (ADP-Glo), PI3Kγ; format: biochemical
T1 construct: purchased Merck Millipore
Description: (§1) Tested compounds were dissolved in 100% DMSO, and thus obtained solutions were serially diluted in 1× reaction buffer. Recombinant kinase was diluted in a reaction mixture comprising 5× reaction buffer, substrate (1 mM sodium diacetate 4,5-bisphosphate phosphatydylinositol (PIP2) solution in 40 mM Tris buffer), and water. To the wells in a 96-wells plate, 5 μl of compounds solutions and 15 μl of the kinase solution in the reaction mixture were added. To initiate interaction of tested chemical compounds with the enzyme, the plate was incubated for 10 minutes at suitable temperature in a plate thermostat with orbital shaking at 600 rpm. Negative control wells contained all above reagents except tested compound and kinase, and positive control wells contained all above reagents except tested compounds. Enzymatic reaction was initiated by adding 5 μl of 150 μM ATP solution, subsequently the plate was incubated for 1 hour at 25° C. or 30° C. (depending on PI3K isoform tested) in plate thermostat with orbital shaking of the plate contents at 600 rpm. Reaction conditions are presented below in Table 12.
(§2) Detection of ADP formed in the enzymatic reaction was then performed using ADP-Glo Kinase Assay (Promega). To the wells of a 96-well plate 25 μl of ADP-Glo Reagent were added, and the plate was incubated for 40 minutes at 25° C. in a plate thermostat with orbital shaking at 600 rpm. Then to the wells of 96-well plate 50 μl of Kinase Detection Reagent were added and the plate was incubated for 40 minutes at 25° C. in a plate thermostat with orbital shaking at 600 rpm. After incubation time, luminescence intensity in a well was measured by Victor Light luminometer (Perkin Elmer, Inc.).
(§3) IC50 values were determined on the basis of luminescence intensity measurements in wells containing tested compounds at different concentrations and in control wells. These values were calculated with Graph Pad 5.03 software by fitting the curve using non-linear regression. Each compound was tested at least in quadruplicates (4 wells) on two 96-well plates using at least 4 wells of each of the controls.

PI3Kβ = molecular target: T2, PI3Kβ (Homo sapiens, UniProt P42338); assay: PI3K kinases inhibition in vitro (ADP-Glo), PI3Kβ; format: biochemical
T2 construct: purchased Merck Millipore
Description: as §1, §2, §3

PI3Kα = molecular target: T3, PI3Kα (Homo sapiens, UniProt P42336); assay: PI3K kinases inhibition in vitro (ADP-Glo), PI3Kα; format: biochemical
T3 construct: purchased Carna Biosciences
Description: as §1, §2, §3

[1] = Pharmacokinetics testing in vivo, oral, rats; details: rat, Wistar rats, oral 30 mg/kg, serum
Description: Tests were performed on about 12 weeks old Wistar rats, weight 250-300 g. Rats were given orally tested compounds at 30 mg/kg m.c. Blood samples were collected from animals for analysis in 6 time points—30 min, 1 h, 2 h, 4 h, 7 h, and 12 h from administration of the compound. Blood was collected to tubes with K2EDTA and centrifuged for 15 min, 2000×g, at room temperature to separate serum. Collected serum samples were maintained at −20° C. before analysis. Each of the compounds was tested on a group of 5 animals.
Serum concentrations of tested compounds were determined by spectrophotometry. For each of tested compounds, time to reach maximum serum concentration (Tmax), maximum concentration (Cmax), and area under the curve (AUC) were determined.

PI3Kδ = molecular target: T4, PI3Kδ (Homo sapiens, UniProt O00329); assay: PI3K kinases inhibition in vitro (ADP-Glo), PI3Kδ; format: biochemical
T4 construct: purchased Merck Millipore
Description: as §1, §2, §3

[2] = averaged, recombinant kinase, 30° C., 1 h, PIP2 50 μM, read-out: PI3Kγ IC50
[3] = averaged, recombinant kinase, 25° C., 1 h, PIP2 30 μM, read-out: PI3Kδ IC50
[4] = averaged, recombinant kinase, 30° C., 1 h, PIP2 50 μM, read-out: PI3Kβ IC50

T2 sequence (P42338 whole entry): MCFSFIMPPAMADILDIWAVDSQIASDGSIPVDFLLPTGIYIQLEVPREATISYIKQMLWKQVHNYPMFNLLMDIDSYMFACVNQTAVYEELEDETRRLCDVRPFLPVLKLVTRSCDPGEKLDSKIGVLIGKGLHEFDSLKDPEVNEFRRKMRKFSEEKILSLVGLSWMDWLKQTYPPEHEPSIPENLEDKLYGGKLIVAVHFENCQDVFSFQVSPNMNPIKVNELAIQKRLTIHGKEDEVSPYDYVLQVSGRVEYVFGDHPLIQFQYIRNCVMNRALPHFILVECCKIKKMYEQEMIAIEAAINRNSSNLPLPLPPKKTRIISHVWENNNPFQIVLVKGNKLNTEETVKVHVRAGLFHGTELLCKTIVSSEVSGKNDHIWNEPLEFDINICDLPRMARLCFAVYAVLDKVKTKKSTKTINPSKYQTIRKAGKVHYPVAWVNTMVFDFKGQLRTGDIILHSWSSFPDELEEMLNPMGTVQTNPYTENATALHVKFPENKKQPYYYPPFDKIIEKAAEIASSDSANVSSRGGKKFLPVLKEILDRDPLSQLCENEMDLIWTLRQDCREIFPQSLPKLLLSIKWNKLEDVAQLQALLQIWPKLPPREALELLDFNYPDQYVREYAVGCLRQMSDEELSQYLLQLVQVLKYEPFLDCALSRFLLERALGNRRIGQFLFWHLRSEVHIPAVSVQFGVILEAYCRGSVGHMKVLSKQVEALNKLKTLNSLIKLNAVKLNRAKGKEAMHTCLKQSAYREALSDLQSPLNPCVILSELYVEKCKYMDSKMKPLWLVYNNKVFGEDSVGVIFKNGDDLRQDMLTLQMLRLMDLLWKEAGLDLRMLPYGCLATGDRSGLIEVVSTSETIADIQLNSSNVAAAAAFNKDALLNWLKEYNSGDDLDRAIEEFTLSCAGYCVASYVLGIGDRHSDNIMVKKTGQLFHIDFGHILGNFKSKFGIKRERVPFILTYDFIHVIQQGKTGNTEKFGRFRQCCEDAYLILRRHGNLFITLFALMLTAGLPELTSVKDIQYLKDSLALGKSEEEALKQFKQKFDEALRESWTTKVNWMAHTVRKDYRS
T2 sequence (P27986 whole entry, further chain): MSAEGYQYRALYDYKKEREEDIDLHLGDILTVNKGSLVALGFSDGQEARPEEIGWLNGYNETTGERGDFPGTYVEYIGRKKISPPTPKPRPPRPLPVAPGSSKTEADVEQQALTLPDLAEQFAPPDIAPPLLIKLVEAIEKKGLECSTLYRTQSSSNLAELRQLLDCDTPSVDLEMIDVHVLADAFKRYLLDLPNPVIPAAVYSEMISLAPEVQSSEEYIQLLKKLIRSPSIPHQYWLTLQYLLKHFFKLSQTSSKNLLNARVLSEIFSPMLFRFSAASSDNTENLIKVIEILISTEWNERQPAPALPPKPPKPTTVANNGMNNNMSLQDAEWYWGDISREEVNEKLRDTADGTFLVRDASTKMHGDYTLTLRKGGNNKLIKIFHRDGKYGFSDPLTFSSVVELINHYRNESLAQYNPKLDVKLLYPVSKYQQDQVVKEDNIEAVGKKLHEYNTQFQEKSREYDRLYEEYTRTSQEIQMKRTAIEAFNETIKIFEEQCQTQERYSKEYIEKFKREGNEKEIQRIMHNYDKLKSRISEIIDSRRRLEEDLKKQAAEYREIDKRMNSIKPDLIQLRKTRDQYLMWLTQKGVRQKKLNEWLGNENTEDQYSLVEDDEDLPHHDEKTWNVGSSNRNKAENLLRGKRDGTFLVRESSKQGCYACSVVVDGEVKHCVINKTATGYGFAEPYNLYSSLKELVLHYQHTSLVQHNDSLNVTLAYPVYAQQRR
T1 sequence (P48736 whole entry): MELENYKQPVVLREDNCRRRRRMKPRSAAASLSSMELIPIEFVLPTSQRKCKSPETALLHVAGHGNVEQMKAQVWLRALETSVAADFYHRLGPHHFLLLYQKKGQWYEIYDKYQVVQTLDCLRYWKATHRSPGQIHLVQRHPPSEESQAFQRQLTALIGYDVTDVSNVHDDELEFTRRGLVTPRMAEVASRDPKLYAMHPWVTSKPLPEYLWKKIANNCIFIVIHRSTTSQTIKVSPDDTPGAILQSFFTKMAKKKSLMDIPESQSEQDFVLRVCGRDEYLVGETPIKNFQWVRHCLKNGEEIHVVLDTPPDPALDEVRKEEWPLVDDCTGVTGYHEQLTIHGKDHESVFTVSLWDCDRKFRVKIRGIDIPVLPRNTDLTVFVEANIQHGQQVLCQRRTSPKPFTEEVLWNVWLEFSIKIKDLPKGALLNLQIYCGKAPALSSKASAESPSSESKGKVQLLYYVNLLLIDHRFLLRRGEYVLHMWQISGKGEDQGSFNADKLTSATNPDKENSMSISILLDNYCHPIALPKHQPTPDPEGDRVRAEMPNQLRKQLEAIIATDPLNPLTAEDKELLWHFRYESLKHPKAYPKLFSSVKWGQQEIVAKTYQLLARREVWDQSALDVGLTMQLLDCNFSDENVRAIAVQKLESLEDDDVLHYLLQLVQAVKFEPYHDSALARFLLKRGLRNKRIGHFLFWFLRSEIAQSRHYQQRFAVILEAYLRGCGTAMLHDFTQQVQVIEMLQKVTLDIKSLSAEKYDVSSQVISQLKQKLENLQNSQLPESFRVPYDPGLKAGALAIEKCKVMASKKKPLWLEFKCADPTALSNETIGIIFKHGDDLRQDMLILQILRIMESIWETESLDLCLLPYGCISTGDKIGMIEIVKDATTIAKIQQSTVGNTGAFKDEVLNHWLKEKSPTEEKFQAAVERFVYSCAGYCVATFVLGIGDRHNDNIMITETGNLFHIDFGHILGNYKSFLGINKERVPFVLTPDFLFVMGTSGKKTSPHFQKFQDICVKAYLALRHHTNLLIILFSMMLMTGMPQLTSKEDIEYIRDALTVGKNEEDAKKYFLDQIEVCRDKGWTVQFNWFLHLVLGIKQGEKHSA
T4 sequence (O00329 whole entry): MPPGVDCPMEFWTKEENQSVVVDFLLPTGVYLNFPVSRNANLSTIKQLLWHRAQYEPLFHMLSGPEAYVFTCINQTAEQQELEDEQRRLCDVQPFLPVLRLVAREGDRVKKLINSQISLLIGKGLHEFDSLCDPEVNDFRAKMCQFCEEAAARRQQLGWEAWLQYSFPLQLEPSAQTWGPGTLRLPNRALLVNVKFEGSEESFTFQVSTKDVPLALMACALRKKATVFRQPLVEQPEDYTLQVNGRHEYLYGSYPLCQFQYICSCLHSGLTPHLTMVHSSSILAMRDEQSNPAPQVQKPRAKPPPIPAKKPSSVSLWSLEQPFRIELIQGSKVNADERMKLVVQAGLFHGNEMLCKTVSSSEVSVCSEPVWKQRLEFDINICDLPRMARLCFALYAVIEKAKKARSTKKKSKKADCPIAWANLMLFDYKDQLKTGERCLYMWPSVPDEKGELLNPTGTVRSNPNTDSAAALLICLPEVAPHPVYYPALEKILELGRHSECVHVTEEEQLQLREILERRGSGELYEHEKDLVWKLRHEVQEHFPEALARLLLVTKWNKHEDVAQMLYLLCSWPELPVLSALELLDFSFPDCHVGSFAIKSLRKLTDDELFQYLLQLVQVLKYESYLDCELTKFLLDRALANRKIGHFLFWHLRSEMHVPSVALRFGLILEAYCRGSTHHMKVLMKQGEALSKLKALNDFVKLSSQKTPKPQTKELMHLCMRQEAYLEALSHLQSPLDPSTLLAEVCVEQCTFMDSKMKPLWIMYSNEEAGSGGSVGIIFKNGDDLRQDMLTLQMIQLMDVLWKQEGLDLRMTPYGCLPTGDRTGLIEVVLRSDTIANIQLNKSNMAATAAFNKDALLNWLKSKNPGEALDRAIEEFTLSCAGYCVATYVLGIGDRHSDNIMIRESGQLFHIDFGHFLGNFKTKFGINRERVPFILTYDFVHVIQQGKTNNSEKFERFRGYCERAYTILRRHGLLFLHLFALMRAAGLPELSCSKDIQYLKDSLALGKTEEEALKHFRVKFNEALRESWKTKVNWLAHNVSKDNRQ
T4 sequence (P27986 whole entry, further chain): as the sequence (P27986 whole entry, further chain) above
T3 sequence (P42336 whole entry): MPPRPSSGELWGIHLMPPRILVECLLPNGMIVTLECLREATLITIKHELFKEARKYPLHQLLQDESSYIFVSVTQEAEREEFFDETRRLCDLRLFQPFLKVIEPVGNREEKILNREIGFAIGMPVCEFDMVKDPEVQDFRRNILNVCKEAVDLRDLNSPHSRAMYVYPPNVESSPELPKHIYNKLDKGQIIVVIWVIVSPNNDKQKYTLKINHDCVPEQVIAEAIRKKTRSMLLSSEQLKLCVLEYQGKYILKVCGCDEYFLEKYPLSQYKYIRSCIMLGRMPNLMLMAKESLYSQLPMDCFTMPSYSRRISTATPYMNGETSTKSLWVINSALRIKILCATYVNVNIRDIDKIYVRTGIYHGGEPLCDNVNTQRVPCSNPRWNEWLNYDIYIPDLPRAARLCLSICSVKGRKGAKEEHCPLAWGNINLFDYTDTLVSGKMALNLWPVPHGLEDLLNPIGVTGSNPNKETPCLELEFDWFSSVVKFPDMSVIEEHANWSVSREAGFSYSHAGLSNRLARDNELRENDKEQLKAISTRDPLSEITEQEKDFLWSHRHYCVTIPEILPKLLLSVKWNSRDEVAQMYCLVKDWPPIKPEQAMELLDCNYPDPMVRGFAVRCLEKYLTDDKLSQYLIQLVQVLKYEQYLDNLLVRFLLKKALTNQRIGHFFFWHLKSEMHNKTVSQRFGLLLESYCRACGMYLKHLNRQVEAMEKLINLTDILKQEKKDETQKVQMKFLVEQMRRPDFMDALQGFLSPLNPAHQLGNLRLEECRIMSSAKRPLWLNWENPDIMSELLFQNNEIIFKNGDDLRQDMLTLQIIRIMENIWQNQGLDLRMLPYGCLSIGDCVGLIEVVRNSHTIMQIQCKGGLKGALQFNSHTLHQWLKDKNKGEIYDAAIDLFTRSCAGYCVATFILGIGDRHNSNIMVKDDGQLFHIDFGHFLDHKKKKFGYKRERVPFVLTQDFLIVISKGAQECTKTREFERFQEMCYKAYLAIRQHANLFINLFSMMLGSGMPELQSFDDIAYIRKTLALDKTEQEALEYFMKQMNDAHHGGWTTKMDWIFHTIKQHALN
T3 sequence (P27986 whole entry partner): as the sequence (P27986 whole entry, further chain) above

Compound | IC50 (PI3Kγ) | IC50 (PI3Kβ) | IC50 (PI3Kα) | AUC [1] | Cmax [1] | Tmax [1] | IC50 (PI3Kδ) | IC50 (PI3Kγ; [2]) | IC50 (PI3Kδ; [3]) | IC50 (PI3Kβ; [4])
CC(C)(O)C1CCN(Cc2cc3nc(-c4cccc5[nH]ccc45)cc(N4CCOCC4)n3n2)CC1 [Example 4, 2-((4-(2-hydroxypropan-2-yl)-piperidin-1-yl)methyl)-5-(1H-indol-4-yl)-7-(morpholin-4-yl)pyrazolo [1,5-a]pyrimidine] | > 1000 nM | > 1000 nM | > 1000 nM | 3580 ng·h/mL | 600 ng/mL | 2 h | < 100 nM |  |  | 
CC(C)(C)N1CCN(Cc2cc3nc(-c4cccc5[nH]ccc45)cc(N4CCOCC4)n3n2)CC1 [Example 8, 2-((4-tert-butylpiperazin-1-yl)-methyl)-5-(1H-indol-4-yl)-7-(morpholin-4-yl)pyrazolo[1,5-a]-pyrimidine] | > 1000 nM | > 1000 nM | > 1000 nM | 1290 ng·h/mL | 200 ng/mL | 2 h | < 100 nM |  |  | 
CC(C)(C)N1CCN(Cc2cc3nc(-c4c(F)ccc5[nH]ccc45)cc(N4CCOCC4)n3n2)CC1 [Example 11, 2-((4-tert-butylpiperazin-1-yl)-methyl)-5-(5-fluoro-1H-indol-4-yl)-7-(morpholin-4-yl)pyrazolo[1,5-a]-pyrimidine] |  | > 1000 nM | > 1000 nM | 1250 ng·h/mL | 300 ng/mL | 2 h |  | > 1000 nM | < 100 nM | 
CC(C)(C)N1CCN(Cc2cc3nc(-c4cnc(N)nc4)cc(N4CCOCC4)n3n2)CC1 [Example 17, 5-(2-aminopyrimidin-5-yl)-2-((4-tert-butylpiperazin-1-yl)methyl)-7-(morpholin-4-yl)pyrazolo[1,5-a]-pyrimidine] |  |  | > 1000 nM |  |  |  |  | > 1000 nM | < 100 nM | > 1000 nM
CC(C)(O)C1CCN(Cc2cc3nc(-c4ccc(N)nc4)cc(N4CCOCC4)n3n2)CC1 [Example 19, 5-(2-aminopyridin-5-yl)-2-((4-(2-hydroxypropan-2-yl)piperidin-1-yl)methyl)-7-(morpholin-4-yl)-pyrazolo[1,5-a]pyrimidine] |  |  | > 1000 nM |  |  |  |  | > 1000 nM | < 100 nM | > 1000 nM
CCN1CCN(Cc2cc3nc(-c4cccc5[nH]ccc45)cc(N4CCOCC4)n3n2)CC1 [Example 22, 2-((4-ethylpiperazin-1-yl)methyl)-5-(1H-indol-4-yl)-7-(morpholin-4-yl)pyrazolo[1,5-a]pyrimidine] | > 1000 nM | > 1000 nM | > 1000 nM |  |  |  | < 100 nM |  |  | 
c1cc(-c2cc(N3CCOCC3)n3nc(CN4CC(N5CCOCC5)C4)cc3n2)c2cc[nH]c2c1 [Example 25, 5-(1H-indol-4-yl)-2-((3-(morpholin-4-yl)azetidin-1-yl)methyl)-7-(morpholin-4-yl)pyrazolo[1,5-a]-pyrimidine] | > 1000 nM | > 1000 nM | > 1000 nM |  |  |  | < 100 nM |  |  | 
CC(C)(C)C1CCN(Cc2cc3nc(-c4cccc5[nH]ccc45)cc(N4CCOCC4)n3n2)CC1 [Example 28, 2-((4-tert-butylpiperidin-1-yl)-methyl)-5-(1H-indol-4-yl)-7-(morpholin-4-yl)pyrazolo[1,5-a]-pyrimidine] | > 1000 nM | > 1000 nM | > 1000 nM |  |  |  | < 100 nM |  |  | 
CC(C)(C)N1CCN(Cc2cc3nc(-c4cncc5[nH]ccc45)cc(N4CCOCC4)n3n2)CC1 [Example 30, 5-(1H-6-azaindol-4-yl)-2-((4-tert-butylpiperazin-1-yl)methyl)-7-(morpholin-4-yl)pyrazolo[1,5-a]-pyrimidine] | > 1000 nM | > 1000 nM | > 1000 nM |  |  |  | < 100 nM |  |  | 
O=S1(=O)CCN(C2CN(Cc3cc4nc(-c5cccc6[nH]ccc56)cc(N5CCOCC5)n4n3)C2)CC1 [Example 31, 5-(1H-indol-4-yl)-2-((3-(1,1-dioxothiomorpholin-4-yl)azetidin-1-yl)methyl)-7-(morpholin-4-yl)-pyrazolo[1,5-a]pyrimidine] | > 1000 nM | > 1000 nM | > 1000 nM |  |  |  | < 100 nM |  |  | 
CC(C)(O)C1CCN(Cc2cc3nc(-c4ccnc5[nH]ccc45)cc(N4CCOCC4)n3n2)CC1 [Example 33, 5-(1H-7-azaindol-4-yl)-2-((4-(2-hydroxypropan-2-yl)piperidin-1-yl)methyl)-7-(morpholin-4-yl)-pyrazolo[1,5-a]pyrimidine] |  |  | > 1000 nM |  |  |  |  | > 1000 nM | < 100 nM | > 1000 nM
Fc1ccc2[nH]ccc2c1-c1cc(N2CCOCC2)n2nc(CN3CCN(C4COC4)CC3)cc2n1 [Example 35] |  |  | > 1000 nM |  |  |  |  | > 1000 nM | < 100 nM | > 1000 nM
CC(C)(O)C1CCN(Cc2cc3nc(-n4c(C(F)F)nc5ccccc54)cc(N4CCOCC4)n3n2)CC1 [Example 51, 5-(2-(difluoromethyl)benzimidazol-1-yl)-2-((4-(2-hydroxypropan-2-yl)piperidin-1-yl)methyl)-7-(morpholin-4-yl)pyrazolo[1,5-a]-pyrimidine] |  |  | > 1000 nM |  |  |  |  | > 1000 nM | < 100 nM | > 1000 nM
CC(C)(C)N1CCN(Cc2cc3nc(-n4c(C(F)F)nc5cnccc54)cc(N4CCOCC4)n3n2)CC1 [Example 62, 5-(2-(difluoromethyl)imidazo[4,5-c]pyridin-1-yl)-2-((4-tert-butylpiperazin-1-yl)methyl)-7-(morpholin-4-yl)pyrazolo[1,5-a]-pyrimidine] |  |  | > 1000 nM |  |  |  |  | > 1000 nM | 100 to 1000 nM | > 1000 nM
FC(F)c1nc2ccccc2n1-c1cc(N2CCOCC2)n2nc(CN3CC(N4CCOCC4)C3)cc2n1 [Example 64, 5-(2-(difluoromethyl)benzimidazol-1-yl)-2-((3-(morpholin-4-yl)-azetidin-1-yl)methyl)-7-(morpholin-4-yl)pyrazolo[1,5-a]pyrimidine] |  |  | 100 to 1000 nM |  |  |  |  | > 1000 nM | < 100 nM | > 1000 nM
FC(F)c1nc2ccccc2n1-c1cc(N2CCOCC2)n2nc(CN3CC(N4CCC(F)(F)CC4)C3)cc2n1 [Example 66, 5-(2-(difluoromethyl)benzimidazol-1-yl)-2-((3-(4,4-difluoropiperidin-1-yl)azetidin-1-yl)methyl)-7-(morpholin-4-yl)pyrazolo[1,5-a]-pyrimidine] |  |  | 100 to 1000 nM |  |  |  |  | > 1000 nM | < 100 nM | > 1000 nM
Cc1c(CN2CCN(C(C)(C)C)CC2)nn2c(N3CCOCC3)cc(-n3c(C(F)F)nc4ccccc43)nc12 [Example 68, 5-(2-(difluoromethyl)benzimidazol-1-yl)-3-methyl-2-((4-tert-butylpiperazin-1-yl)methyl)-7-(morpholin-4-yl)pyrazolo[1,5-a]-pyrimidine] |  |  | 100 to 1000 nM |  |  |  |  | > 1000 nM | < 100 nM | > 1000 nM
Cc1c(CN2CCC(C(C)(C)O)CC2)nn2c(N3CCOCC3)cc(-n3c(C(F)F)nc4ccccc43)nc12 [Example 69, 5-(2-(difluoromethyl)benzimidazol-1-yl)-3-methyl-2-((4-(2-hydroxy-propan-2-yl)piperidin-1-yl)methyl)-7-(morpholin-4-yl)pyrazolo[1,5-a]-pyrimidine] |  |  | 100 to 1000 nM |  |  |  |  | > 1000 nM | < 100 nM | > 1000 nM
CC(C)(C)N1CCN(C(=O)c2cc3nc(-c4cccc5[nH]ccc45)cc(N4CCOCC4)n3n2)CC1 [Example 70, 2-(4-tert-butylpiperazin-1-ylcarbonyl)-5-(1H-indol-4-yl)-7-(morpholin-4-yl)pyrazolo[1,5-a]pyrimidine] |  |  | > 1000 nM |  |  |  |  | > 1000 nM | < 100 nM | > 1000 nM
CC(C)(C)N1CCN(Cc2nn3c(N4CCOCC4)cc(-n4c(C(F)F)nc5ccccc54)nc3c2Cl)CC1 [Example 71, 5-(2-(difluoromethyl)benzimidazol-1-yl)-3-chloro-2-((4-tert-butylpiperazin-1-yl)methyl)-7-(morpholin-4-yl)pyrazolo[1,5-a]pyrimidine] |  |  | 100 to 1000 nM |  |  |  |  | > 1000 nM | < 100 nM | > 1000 nM

From patent US10138247B2, “7-(morpholin-4-yl)pyrazole[1,5-A]pyrimidine derivatives as PI3 kinase inhibitors” (priority 2015, dated 2018)
